From PubChem BioAssay (NCI)
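How tested: cells in 96-well plates exposed to compound for 48 hours at five concentrations. GI50: concentration for 50% inhibition of growth. TGI: concentration producing complete growth inhibition.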

Tests used:
Test in all cases: inhibition of tumour cell growth, NCI panel, 48 h
M14 melanoma = system: M14 melanoma
OVCAR-4 ovarian = system: OVCAR-4 ovarian
RPMI-8226 leukemia = system: RPMI-8226 leukemia
TK-10 renal = system: TK-10 renal
UACC-62 melanoma = system: UACC-62 melanoma
SK-OV-3 ovarian = system: SK-OV-3 ovarian
HCT-15 colon = system: HCT-15 colon
SN12C renal = system: SN12C renal
HOP-62 NSCLC = system: HOP-62 NSCLC
MOLT-4 leukemia = system: MOLT-4 leukemia

SMILES | GI50 (M14 melanoma) | TGI (M14 melanoma) | GI50 (OVCAR-4 ovarian) | TGI (OVCAR-4 ovarian) | GI50 (RPMI-8226 leukemia) | TGI (RPMI-8226 leukemia) | TGI (TK-10 renal) | GI50 (UACC-62 melanoma) | TGI (UACC-62 melanoma) | TGI (SK-OV-3 ovarian) | GI50 (HCT-15 colon) | TGI (HCT-15 colon) | GI50 (SN12C renal) | TGI (SN12C renal) | TGI (HOP-62 NSCLC) | TGI (MOLT-4 leukemia) | GI50 (MOLT-4 leukemia) | GI50 (TK-10 renal) | GI50 (HOP-62 NSCLC) | GI50 (SK-OV-3 ovarian)
O=C1C=C[C@@]23C[C@@H](Nc4c(O)c5c6c(c42)=NCCC=6C=N5)SC3=C1 | 2.16 µM | 5.05 µM | 1.83 µM | 3.27 µM | 3.13 µM | > 34.6 µM | 27.7 µM | 1.64 µM | 3.31 µM | 32.8 µM | 2.85 µM | 7.94 µM | 2.36 µM | 5.16 µM |  |  |  |  |  | 
CS(=O)(=O)OCCn1cnc2nc(NC(=O)c3ccccc3)[nH]c(=O)c21 |  | > 100 µM |  | > 100 µM |  | > 100 µM | > 100 µM |  | > 100 µM | > 100 µM |  | > 100 µM |  | > 100 µM | > 100 µM |  |  |  |  | 
Fc1cccc2cc3ccc4cccc5ccc(c12)c3c45 |  | > 100 µM |  | > 100 µM |  |  | > 100 µM |  | > 100 µM | > 100 µM |  |  |  | > 100 µM | > 100 µM | > 100 µM |  |  |  | 
CC(=O)Nc1ccc(/C=N\N2C(=O)c3ccccc3C2=O)cc1 |  | > 100 µM |  | > 100 µM |  | > 100 µM | > 100 µM |  | > 100 µM |  |  | > 100 µM |  | > 100 µM | > 100 µM | > 100 µM |  |  |  | 
Cc1ccc(/C=C2/SC(Nc3nc(-c4nc(NC5=NC(=O)/C(=C\c6ccc(C)cc6)S5)sc4C)c(C)s3)=NC2=O)cc1 | 0.0642 µM | 1.21 µM |  |  | 1.27 µM | > 15 µM | 1.21 µM | 0.0759 µM | 1.71 µM |  | 0.347 µM | > 19.6 µM | 0.957 µM | 18.3 µM | 2.65 µM | > 50 µM | > 19.7 µM | 0.288 µM | 0.005 µM | 
CCOC(=O)C1=C(NNC(=O)Cc2ccccc2)CSC1=Nc1ccccc1 |  | > 100 µM |  | > 100 µM |  |  | > 100 µM |  | > 100 µM | > 100 µM |  | > 100 µM |  | > 100 µM | > 100 µM | > 100 µM |  |  |  | 
N#C/C(=C1\NN=C(N)C(c2ccc(Cl)cc2)=C1O)c1ccc(Cl)cc1 |  | > 100 µM |  | > 100 µM |  | > 100 µM | > 100 µM |  | > 100 µM | > 100 µM |  |  |  | > 100 µM | > 100 µM | > 100 µM |  |  |  | 
O=c1c2cccc3cccc(c4oc5c6cccc7cccc(c(=O)c5c14)c76)c32 |  | 17.7 µM |  |  |  | 24.1 µM | 17.5 µM |  | 17.6 µM | > 31.6 µM |  | 16.9 µM |  | 18.2 µM | > 100 µM | 21.5 µM |  |  |  | 
CC(=O)Nc1ccccc1C=C1c2ccccc2-c2ccccc21 |  | > 100 µM |  | > 100 µM |  | > 100 µM | > 100 µM |  | > 100 µM |  |  | > 100 µM |  | 53.6 µM | 42.9 µM | > 100 µM |  |  |  | 
O=C(O)CCSCCCN1C(=O)c2ccccc2C1=O |  |  |  | > 100 µM |  | > 100 µM | > 100 µM |  | > 100 µM | > 100 µM |  | > 100 µM |  | > 100 µM |  | > 100 µM |  |  |  | 
CC1CC2C(=O)N(c3ccccc3)C(=O)C2c2c1c1ccccc1n2Cc1ccccc1 (stereo not drawn) |  | > 100 µM |  | > 100 µM |  | > 100 µM |  |  | > 100 µM | > 100 µM |  | > 100 µM |  | > 100 µM | > 100 µM | > 100 µM |  |  |  | 
Cn1ccc2c(c1=O)C(=O)c1nccc3c1c-2nc1ccccc13 | 1.84 µM | 3.52 µM | 1.31 µM | 2.6 µM | 2.58 µM | 8.68 µM |  | 1.54 µM | 2.93 µM | 3.15 µM | 1.56 µM | 3.46 µM | 1.56 µM | 3.03 µM | 2.81 µM | 7.01 µM | 2.26 µM |  | 1.45 µM | 1.74 µM
N#Cc1c(N)nc(N2CCOCC2)c(C#N)c1-c1ccc(Cl)cc1 | 44.6 µM | > 100 µM | 29.8 µM | > 100 µM | 26.5 µM | > 100 µM |  | 23 µM | > 100 µM | > 100 µM | 26.9 µM | > 100 µM | 50.9 µM | > 100 µM | > 100 µM | > 100 µM | 43.7 µM |  | > 100 µM | 47.2 µM
CCN1CCN(CC(=O)Nc2nc3ccc(NCc4ccc(Cl)cc4)cc3s2)CC1 | 1.86 µM | 3.63 µM | 5.25 µM | 90.6 µM | 1.6 µM | 4.04 µM | 7.45 µM | 2.08 µM | 4.03 µM | 7.98 µM | 1.95 µM | 4.66 µM | 2.94 µM | 11.9 µM |  | 5.78 µM | 2.23 µM | 2.84 µM |  | 2.95 µM
CC1CC(c2cccc3c2OCO3)=Nc2ccccc2S1 (stereo not drawn) |  | > 100 µM |  | > 100 µM |  | > 100 µM | > 100 µM |  | > 100 µM | > 100 µM |  | > 100 µM |  | > 100 µM |  | > 100 µM |  |  |  | 
COc1cc2c3c(n(CCCNCC(OC)OC)c(=O)c2cc1OC)-c1cc2c(cc1C3=O)OCO2 | 0.345 µM | > 37.2 µM | 20.1 µM | 42.7 µM | < 0.01 µM | 0.197 µM | 47.8 µM | 1.63 µM | 22.6 µM | > 100 µM | 17.3 µM | > 100 µM |  |  | 4.66 µM | 1.14 µM | < 0.01 µM | 11.9 µM | 0.126 µM | 22.8 µM
Cc1ccc(NC(=O)c2cc3ccccc3c(N=Nc3ccccc3O)c2O)c(C)c1 |  | 12.7 µM |  | 11.6 µM |  | 11.1 µM | 24.5 µM |  |  | 16.7 µM |  | 11.1 µM |  |  | 12.1 µM | 10.1 µM |  |  |  | 
COC1(O)C(=O)c2ccccc2OC1(OC)c1ccccc1 (stereo not drawn) |  | > 100 µM |  | > 100 µM |  | > 100 µM | > 100 µM |  | > 100 µM |  |  | > 100 µM |  | > 100 µM | > 100 µM | > 100 µM |  |  |  | 
C=C1C(=O)OC2C1CC[C@H](C)C13OC(=O)CC1[C@@]23C (stereo partly drawn) |  |  |  |  |  | > 100 µM | > 100 µM |  | > 100 µM | > 100 µM |  |  |  | > 100 µM |  | > 100 µM |  |  |  | 
